Test results as given in US9067898B1, “Isothiazole derivatives as GPR120 agonists for the treatment of type II diabetes” (Janssen Pharmaceutica NV, priority 2014, dated 2015).

Target: T1, Human GPR120 short form (Homo sapiens, UniProt Q5NUL3)
T1 construct: expressed in transfected cells
T1 sequence (Q5NUL3 1-361): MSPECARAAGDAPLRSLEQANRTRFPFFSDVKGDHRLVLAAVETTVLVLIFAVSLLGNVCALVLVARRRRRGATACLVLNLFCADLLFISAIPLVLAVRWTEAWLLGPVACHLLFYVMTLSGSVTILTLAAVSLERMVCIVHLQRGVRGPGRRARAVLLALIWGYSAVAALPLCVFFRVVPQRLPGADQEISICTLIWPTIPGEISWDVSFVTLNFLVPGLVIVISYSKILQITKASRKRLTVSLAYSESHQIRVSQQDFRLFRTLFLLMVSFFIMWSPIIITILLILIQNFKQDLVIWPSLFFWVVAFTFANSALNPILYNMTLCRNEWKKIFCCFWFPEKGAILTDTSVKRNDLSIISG
Assay: Human GPR120 calcium flux assay (FLIPR), Procedure Calcium A
Type: cell-based
Settings: HEK-293 cells expressing human GPR120 short form, 2500 cells/well; read-out: GPR120 Ca2+ Assay A EC50
Procedure, shortened: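 HEK293 cells stably expressing the short isoform (NM_001195755.1), 2500/well, starved 1 h, then loaded with Fluo-4 NW plus probenecid (30 min 37 °C, 15 min RT). Compound solutions 0.012–100 μM, 0.2% DMSO final; FLIPR read 300 s after addition. EC50 from Fmax−Fmin fitted to variable-slope sigmoid (Hill <2).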

Molecule | EC50
CCc1ccc(-c2cc(F)sc2COc2ccc(CCC(=O)O)c(C)c2C)cc1 [Cpd 1, 3-(4-[[3-(4-ethylphenyl)-5-fluorothiophen-2-yl]methoxy]-2,3-dimethylphenyl)propanoic acid] | 0.024 µM
O=C(O)CCc1cc(F)c(OCc2c(C3CCCC3)nsc2C(F)(F)F)c(F)c1 [Cpd 71, 3-(4-[[3-cyclopentyl-5-(trifluoromethyl)-1,2-thiazol-4-yl]methoxy]-3,5-difluorophenyl)propanoic acid] | 0.037 µM
CC(Cc1cc(F)c(OCc2c(-c3ccc(Cl)cc3)nsc2C(F)(F)F)c(F)c1)C(=O)O (stereo not shown) [Cpd 108, 3-(4-[[3-(4-chlorophenyl)-5-(trifluoromethyl)-1,2-thiazol-4-yl]methoxy]-3,5-difluorophenyl)-2-methylpropanoic acid] | 0.089 µM
3-(4-[[3-(4-ethylphenyl)-5-(trifluoromethyl)-1,2-thiazol-4-yl]methoxy]-3,5-difluorophenyl)propanoic acid [Cpd 70] | 0.03 µM
OCCCc1cc(F)c(OCc2c(-c3ccc4c(c3)OCO4)csc2C(F)(F)F)c(F)c1 [Cpd 37, 3-(4-((4-(benzo[d][1,3]dioxol-5-yl)-2-(trifluoromethyl)thiophen-3-yl)methoxy)-3,5-difluorophenyl)propan-1-ol] | 0.094 µM
Cc1c(CCC(=O)O)ccc(OCc2c(-c3ccc(Cl)cc3)nsc2C(F)(F)F)c1C [Cpd 142, 3-(4-((3-(4-chlorophenyl)-5-(trifluoromethyl)isothiazol-4-yl)methoxy)-2,3-dimethylphenyl)propanoic acid] | 0.155 µM
Cc1ccc(-c2nsc(C(F)(F)F)c2COc2c(F)cc(CC(C)C(=O)O)cc2F)c(F)c1 (stereo not shown) [Cpd 76, 3-(3,5-difluoro-4-[[3-(2-fluoro-4-methylphenyl)-5-(trifluoromethyl)-1,2-thiazol-4-yl]methoxy]phenyl)-2-methylpropanoic acid] | 0.042 µM
CCc1ccc(-c2snc(Cl)c2COc2ccc(CCC(=O)O)c(C)c2C)cc1 [Cpd 85, 3-(4-[[3-chloro-5-(4-ethylphenyl)-1,2-thiazol-4-yl]methoxy]-2,3-dimethylphenyl)propanoic acid] | 0.056 µM
O=C(O)CCc1cc(F)c(OCc2c(-c3ncc(Cl)cc3F)nsc2C(F)(F)F)c(F)c1 [Cpd 153, 3-(4-((3-(5-chloro-3-fluoropyridin-2-yl)-5-(trifluoromethyl)isothiazol-4-yl)methoxy)-3,5-difluorophenyl)propanoic acid] | 0.175 µM
O=C(O)CCc1cc(F)c(OCc2c(-c3ccc(Cl)cc3)nsc2C(F)(F)F)c(F)c1 [Cpd 79, 3-(4-[[3-(4-chlorophenyl)-5-(trifluoromethyl)-1,2-thiazol-4-yl]methoxy]-3,5-difluorophenyl)propanoic acid] | 0.051 µM
CCc1cc(CCC(=O)O)ccc1OCc1c(-c2ccc(Cl)cc2)nsc1C(F)(F)F [Cpd 162, 3-(4-[[3-(4-chlorophenyl)-5-(trifluoromethyl)-1,2-thiazol-4-yl]methoxy]-3-ethylphenyl)propanoic acid] | 0.202 µM
Cc1c(CCC(=O)O)ccc(OCc2c(-c3ccccc3)nsc2C(F)(F)F)c1C [Cpd 134, 3-(2,3-dimethyl-4-[[3-phenyl-5-(trifluoromethyl)-1,2-thiazol-4-yl]methoxy]phenyl)propanoic acid] | 0.133 µM
Cc1ccc(-c2nsc(C(F)(F)F)c2COc2c(F)cc(CCC(=O)O)cc2F)c(F)c1 [Cpd 65, 3-(3,5-difluoro-4-[[3-(2-fluoro-4-methylphenyl)-5-(trifluoromethyl)-1,2-thiazol-4-yl]methoxy]phenyl)propanoic acid] | 0.013 µM
O=C(O)CCc1cc(F)c(OCc2c(-c3ccc(Cl)c(F)c3)nsc2C(F)(F)F)c(F)c1 [Cpd 67, 3-(4-((3-(4-chloro-3-fluorophenyl)-5-(trifluoromethyl)isothiazol-4-yl)methoxy)-3,5-difluorophenyl)propanoic acid] | 0.025 µM
OCCCc1ccc(OCc2c(Cl)nsc2-c2ccc(Cl)cc2)c(F)c1F [Cpd 102, 3-(4-((3-chloro-5-(4-chlorophenyl)isothiazol-4-yl)methoxy)-2,3-difluorophenyl)propan-1-ol] | 0.078 µM
Cc1ccccc1-c1snc(Cl)c1COc1c(F)cc(CCC(=O)O)cc1F [Cpd 193, 3-(4-[[3-chloro-5-(2-methylphenyl)-1,2-thiazol-4-yl]methoxy]-3,5-difluorophenyl)propanoic acid] | 0.344 µM
Cc1c(CCC(=O)O)ccc(OCc2sc(F)cc2-c2ccc(Cl)cc2)c1C [Cpd 3, 3-(4-((3-(4-chlorophenyl)-5-fluorothiophen-2-yl)methoxy)-2,3-dimethylphenyl)propanoic acid] | 0.049 µM
OCCCc1cc(F)c(OCc2c(-c3ccc4c(c3)OCO4)nsc2C(F)(F)F)c(F)c1 [Cpd 93, 3-(4-[[3-(2H-1,3-benzodioxol-5-yl)-5-(trifluoromethyl)-1,2-thiazol-4-yl]methoxy]-3,5-difluorophenyl)propan-1-ol] | 0.071 µM
CCc1ccc(-c2nsc(C(F)(F)F)c2COc2ccc(CCC(=O)O)c(F)c2F)cc1 [Cpd 73, 3-(4-((3-(4-ethylphenyl)-5-(trifluoromethyl)isothiazol-4-yl)methoxy)-2,3-difluorophenyl)propanoic acid] | 0.041 µM
Cc1c(CCC(=O)O)ccc(OCc2c(-c3ncc(Cl)cc3F)nsc2C(F)(F)F)c1C [Cpd 180, 3-(4-((3-(5-chloro-3-fluoropyridin-2-yl)-5-(trifluoromethyl)isothiazol-4-yl)methoxy)-2,3-dimethylphenyl)propanoic acid] | 0.27 µM
O=C(O)CCc1cc(F)c(OCc2c(-c3ccc(Cl)cc3)nsc2C(F)(F)F)c(F)c1F [Cpd 116, 3-(4-((3-(4-chlorophenyl)-5-(trifluoromethyl)isothiazol-4-yl)methoxy)-2,3,5-trifluorophenyl)propanoic acid] | 0.104 µM
3-(4-[[3-(4-chlorophenyl)-5-(trifluoromethyl)-1,2-thiazol-4-yl]methoxy]-3-methylphenyl)propanoic acid [Cpd 235] | 0.05 µM
O=C(O)CCc1cc(F)c(OCc2c(-c3ccc(Cl)cc3F)nsc2C(F)(F)F)c(F)c1 [Cpd 74, 3-(4-((3-(4-chloro-2-fluorophenyl)-5-(trifluoromethyl)isothiazol-4-yl)methoxy)-3,5-difluorophenyl)propanoic acid] | 0.042 µM
OCCCc1cc(F)c(OCc2c(-c3ccc(Cl)cc3)nsc2C(F)(F)F)c(F)c1 [Cpd 100, 3-(4-[[3-(4-chlorophenyl)-5-(trifluoromethyl)-1,2-thiazol-4-yl]methoxy]-3,5-difluorophenyl)propan-1-ol] | 0.076 µM
OCC#Cc1cc(F)c(OCc2c(-c3ccc(Cl)cc3)nsc2C(F)(F)F)c(F)c1 [Cpd 213, 3-(4-[[3-(4-chlorophenyl)-5-(trifluoromethyl)-1,2-thiazol-4-yl]methoxy]-3,5-difluorophenyl)prop-2-yn-1-ol] | 0.603 µM
O=C(O)CCc1c(F)c(F)c(OCc2c(-c3ccc(Cl)cc3)nsc2C(F)(F)F)c(F)c1F [Cpd 152, 3-(4-((3-(4-chlorophenyl)-5-(trifluoromethyl)isothiazol-4-yl)methoxy)-2,3,5,6-tetrafluorophenyl)propanoic acid] | 0.173 µM
O=C(O)CCc1cc(F)c(OCc2c(-c3ccc(Cl)c(F)c3)nsc2C(F)(F)F)c(F)c1F [Cpd 138, 3-(4-((3-(4-chloro-3-fluorophenyl)-5-(trifluoromethyl)isothiazol-4-yl)methoxy)-2,3,5-trifluorophenyl)propanoic acid] | 0.137 µM
3-(4-[[3-(4-ethylphenyl)-5-(trifluoromethyl)-1,2-thiazol-4-yl]methoxy]-1-benzothiophen-7-yl)propanoic acid [Cpd 92] | 0.05 µM
